Assay results from patent US20060287319A1, “Anti-viral compositions comprising heterocyclic substituted phenyl furans and related compounds” (priority 2005, published 2006).
Like-named read-outs stand apart in the source and are kept apart here.

Experiments:
[1] = system: HIV-1; conditions: previously reported; cited from earlier work
[2] = system: HIV-1IIIB in MT-2 cells; experiment: Time-of-addition assay (p24 production); format: cell-based; conditions: 0.1 μM
Experimental: FIG. 1 NB-206 and its analogs inhibited HIV-1 entry. Inhibition of HIV-1 entry was determined by a time-of-addition assay. NB-206 (2.5 μM) and its analog NB-231 (2.5 μM) were added to MT-2 cells at different intervals post-infection by HIV-1IIIB. AZT (0.1 μM), a reverse transcriptase inhibitor, was included as a control. Each sample was tested in triplicate.
Assessment of anti-HIV-1 infectivity. […] Reactions were terminated by addition of 1N H2SO4.
A time-of-addition assay was carried out to determine whether NB-206 and its analogs are HIV-1 entry inhibitors. MT-2 cells were incubated with HIV-1IIIB at 37° C. for 0, 1, 2, 3, 4, 6, and 8 hrs, respectively, before addition of NB-206 and NB-231 at 2.5 μM. AZT (0.1 μM) was used as a control. After culture for another 2 hrs, the cells were washed to remove the free-virus and compounds. The supernatants were collected on day 4 post-infection for measurement of p24 production.

[3] = system: HIV-1IIIB infected H9 cells (H9/HIV-1IIIB) and MT-2 cells; experiment: HIV-1 mediated cell-cell fusion (dye transfer assay); format: cell-based; conditions: H9/HIV-1IIIB with MT-2 cells; read-out: EC50 (μM) (M ± SD) for inhibition of Cell fusion
Experimental: Inhibition of cell-cell fusion. A dye transfer assay was used for detection of HIV-1 mediated cell fusion as previously described (11,25,26). H9/HIV-1IIIB cells were labeled with a fluorescent reagent, Calcein-AM (Molecular Probes, Inc., Eugene, Oreg.) and then incubated with MT-2 cells (ratio=1:5) in 96-well plates at 37° C. for 2 hrs in the presence or absence of compounds tested. The fused and unfused Cacein-labeled HIV-1-infected cells were counted under an inverted fluorescence microscope (Zeiss, Germany) with an eyepiece micrometer disc. The percentage of inhibition of cell fusion and the IC50 values were calculated as previously described (11).

[4] = system: HIV-1 IIIB; conditions: for EC50: read-out: EC50 (μM) (M ± SD) for inhibition of p24, HIV-1 IIIB, MT-2 cells
Experimental: Assessment of anti-HIV-1 infectivity. The inhibitory activity of compounds on infection by laboratory-adapted HIV-1 strains was determined as previously described (34). […] For the time-of-addition assay, compounds were added at various time post-infection. Then the culture supernatants were removed and fresh media were added. On the fourth day post-infection, 100 μl of culture supernatants were collected from each well, mixed with equal volumes of 5% Triton X-100 and assayed for p24 antigen, which was quantitated by ELISA (23). Briefly, the wells of polystyrene plates (Immulon 1B, Dynex Technology, Chantilly, Va.) were coated with HIV immunoglobulin (HIVIG), which was prepared from plasma of HIV-seropositive donors with high neutralizing titers against HIV-1IIIB as previously described (36) in 0.085 M carbonate-bicarbonate buffer (pH 9.6) at 4° C. overnight, followed by washes with PBS-T buffer (0.01M PBS containing 0.05% Tween-20) and blocking with PBS containing 1% dry fat-free milk (Bio-Rad Inc., Hercules, Calif.). Virus lysates were added to the wells and incubated at 37° C. for 1 h. […] Reactions were terminated by addition of 1N H2SO4. […] Recombinant protein p24 (US Biological, Swampscott, Mass.) was included for establishing standard dose response curve.

[5] = system: HIV-1 IIIB; experiment: HIV-1-mediated cytopathic effect (CPE); format: cell-based; conditions: read-out: EC50 (μM) (M ± SD) for inhibition of CPE
Description: We thus purchased these compounds and tested their inhibitory activity on: 1) HIV-1 replication (p24 production); 2) HIV-1-mediated cytopathic effect (CPE); and 3) HIV-1 Env-induced cell-cell fusion; and their cytotoxicity to MT-2 cells.

[6] = system: MT-2 cells
Experimental: Detection of in vitro cytotoxicity. The in vitro cytotoxicity of compounds for MT-2 cells was measured by a colorimetric method using XTT tetrazolium dye as previously described (21). Briefly, 100 μl of a compound at a graded concentration was added to equal volume of cells (5×10^5/ml) in a well of 96-well plates. After incubation at 37° C. for 4 days, XTT (1 mg/ml; […]; PolySciences, Inc., Warrington, Pa.) was added. Four hours later, the soluble intracellular formazan was quantitated colorimetrically at 450 nm with a reference at 570 nm.

[7] = target: gp41 six-helix bundle formation between N36 and C34 (Human immunodeficiency virus type 1 group M subtype B, UniProt P04578)
Chain of gp41 six-helix bundle formation between N36 and C34 (P04578 546-581): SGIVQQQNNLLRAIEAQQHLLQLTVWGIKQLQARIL
Experimental: ELISA for screening for compounds that inhibit the gp41 six-helix bundle formation. A sandwich ELISA as previously described (27) was used to screen for compounds that inhibit the gp41 six-helix bundle formation. Briefly, peptide N36 (2 μM) was pre-incubated with a test compound at the indicated concentrations at 37° C. for 30 min, followed by addition of C34 (2 μM). In the control experiments, N36 was pre-incubated with C34 at 37° C. for 30 min, followed by addition of the test compound. After incubation at 37° C. for 30 min, the mixture was added to wells of a 96-well polystyrene plate (Costar, Corning Inc., Corning, N.Y.) which were precoated with IgG (2 μg/ml) purified from rabbit antisera directed against the N36/C34 mixture. […] Absorbance at 450 nm was measured using an ELISA reader (Ultra 384, Tecan, Research Triangle Park, N.C.). […] Chou (Sloan-Kettering Cancer Center, New York, N.Y.).
A model system of the gp41 six-helix bundle was established by mixing the N— and C-peptides at equal molar concentrations (16).

[8] = system: HIV-1IIIB-infected H9 cells (H9/HIV-1IIIB) cocultured with MT-2 cells; conditions: single dose 25 μg/ml, HTS
Experimental: Syncytium-formation assay for screening HIV-1 fusion inhibitors. HIV-1IIIB-infected H9 cells (H9/HIV-1IIIB) at 2×10^5/ml were cocultured with MT-2 cells (2×10^6/ml) in the presence of compounds to be screened (final concentration of compound: 25 μg/ml) in a 96-well plate at 37° C. for 2 days. HIV-1 induced syncytium formation was observed under an inverted microscope and scored as “−” (no syncytium was observed), “±” (about 50% syncytia were inhibited), and “+” (no syncytium formation was inhibited). The compounds scored with “−” and “±” were selected for further screening by ELISA for inhibitors against the gp41 six-helix bundle formation.

[9] = read-out: Cytotoxicity CC50 (μM) (M ± SD), MT-2 cells

EC50 [3] [µM] | EC50 [4] [µM] | EC50 [5] [µM] | SMILES | CC50 [6, 9] [µM] | CC50 [6] [µM] | also measured
> 100 | > 100 | > 100 | C#CCN1C(=O)S/C(=C\c2ccc(-c3cccc(C(=O)O)c3)o2)C1=O [NB216] |  | 55.3 ± 10 | 
> 100 | 2.12 ± 0.38 | 3.46 ± 0.2 | COC(=O)c1ccccc1N1C(=O)/C(=C/c2ccc(-c3ccc(Cl)c(C(=O)O)c3)o2)SC1=S [NB226] |  | > 320 | 
> 100 | > 100 | > 100 | Cc1c(C(=O)O)cccc1-c1ccc(/C=C2\SC(=S)N(CC(=O)O)C2=O)o1 [NB228] |  | > 397 | 
> 100 | > 100 | > 100 | O=C(O)c1cccc(-c2ccc(/C=C3\SC(=S)N(c4ccc(F)cc4)C3=O)o2)c1 [NB229] |  | > 376 | 
> 100 | > 100 | > 100 | CCC(C)N1C(=O)S/C(=C\c2ccc(-c3cc(C(=O)O)ccc3Cl)o2)C1=O (stereo not shown) [NB232] |  | > 394 | 
> 100 | > 100 | > 100 | O=C(O)CN1C(=O)/C(=C/c2ccc(-c3cc(C(=O)O)ccc3Cl)o2)SC1=S [NB235] |  | > 378 | 
> 100 | > 100 | > 100 | CCN1C(=O)S/C(=C\c2ccc(-c3cc(C(=O)O)ccc3Cl)o2)C1=O [NB236] |  | 113 ± 8.64 | 
> 100 | > 100 | > 100 | COC(=O)C(C)N1C(=O)S/C(=C\c2ccc(-c3cc(C(=O)O)ccc3C)o2)C1=O (stereo not shown) [NB237] |  | 67.7 ± 15 | 

More lines, now with the values behind:

SMILES | EC50 [3] [µM] | EC50 [4] [µM] | EC50 [5] [µM] | CC50 [6, 9] [µM] | CC50 [6] [µM] | also measured
COc1ccc(S(=O)(=O)[O-])cc1N=Nc1c(S(=O)(=O)[O-])cc2cc(Nc3nc(Nc4ccccc4)nc(Nc4cc(C)c(N=Nc5cc(S(=O)(=O)[O-])cc6cc(S(=O)(=O)[O-])cc(O)c56)cc4OC)n3)ccc2c1O.[Na+].[Na+].[Na+].[Na+] [ADS-J1] |  |  |  |  |  | anti-HIV-1 activities [1]: micromolar levels
Cc1cn([C@H]2C[C@H](N=[N+]=[N-])[C@@H](CO)O2)c(=O)[nH]c1=O [AZT] |  |  |  |  |  | inhibition of HIV-1 replication, added 8 hrs post-infection [2]: still effective
O=C(O)c1cccc(-c2ccc(/C=C3\SC(=S)N(c4cccc(Cl)c4)C3=O)o2)c1 [NB145] | 1.77 ± 0.09 | 0.18 ± 0.02 | 0.18 ± 0.006 | 47.5 ± 6.37 |  | SI (CC50/EC50) ([4]; selectivity index): 261.5; inhibition of six-helix bundle formation between N36 and C34 ([7]; single dose 25 μg/ml, HTS): completely inhibited; inhibition of HIV-1 mediated syncytium formation [8]: completely inhibited
O=C(O)c1cccc(-c2ccc(/C=C3\SC(=S)N(c4cccc(C(F)(F)F)c4)C3=O)o2)c1 [NB154] |  |  |  |  |  | IC50 ([7]; read-out: IC50 for inhibition of six-helix bundle formation between N36 and C34, sandwich ELISA, FIG. 3): 1.56 ± 0.12 µM
Cc1cccc(NC(=O)CN2C(=O)S/C(=C\c3ccc(-c4ccc(Cl)c(C(=O)O)c4)o3)C2=O)c1 [NB207] | > 100 | > 100 | > 100 |  | > 464 | 
O=C(O)c1cc(-c2ccc(/C=C3\SC(=S)N(Cc4ccc(F)cc4)C3=O)o2)ccc1Cl [NB208] | 6.668 ± 0.042 | 1.84 ± 0.654 | > 100 | 54.6 ± 15.3 |  | SI (CC50/EC50) ([4]; selectivity index): 29.77
Cc1cccc(NC(=O)CN2C(=O)S/C(=C\c3ccc(-c4cccc(C(=O)O)c4C)o3)C2=O)c1 [NB209] | > 100 | > 100 | > 100 |  | 113 ± 14.8 | 
COc1ccc(CN2C(=O)/C(=C/c3ccc(-c4ccc(Cl)c(C(=O)O)c4)o3)SC2=S)cc1 [NB211] | 68.6 ± 1.83 | 1.13 ± 0.103 | 2.23 ± 0.515 |  | 93.2 ± 4.41 | SI (CC50/EC50) [4]: 82.24
O=C(O)c1cc(-c2ccc(/C=C3\SC(=S)N(c4ccc(Cl)cc4)C3=O)o2)ccc1Cl [NB213] | 14.7 ± 0.599 | 0.514 ± 0.128 | 3.7 ± 1.01 | 93 ± 12.8 |  | SI (CC50/EC50) ([4]; selectivity index): 181.04
CCN1C(=O)/C(=C/c2ccc(-c3ccc(Cl)c(C(=O)O)c3)o2)SC1=S [NB214] | 2.23 ± 0.082 | 0.943 ± 0.144 | 3.53 ± 0.738 |  | 44.8 ± 1.25 | SI (CC50/EC50) [4]: 47.5
O=C(O)c1cc(-c2ccc(/C=C3\SC(=S)N(C4CCCCC4)C3=O)o2)ccc1Cl [NB219] | 4.3 ± 0.134 | 0.087 ± 0.04 | 0.401 ± 0.067 | 6.87 ± 0.29 |  | SI (CC50/EC50) ([4]; selectivity index): 78.97
O=C(O)c1cccc(-c2ccc(/C=C3\SC(=S)N(c4cccc5ccccc45)C3=O)o2)c1 [NB221] | 7.11 ± 0.24 | 0.46 ± 0.009 | 1.58 ± 0.241 | 34.5 ± 0.46 |  | SI (CC50/EC50) ([4]; selectivity index): 75.04
O=C(O)c1cc(-c2ccc(/C=C3\SC(=S)N(c4ccc([N+](=O)[O-])cc4)C3=O)o2)ccc1Cl [NB222] | > 100 | > 100 | > 100 | > 328 |  | 
Cc1ccc(N2C(=O)/C(=C/c3ccc(-c4cccc(C(=O)O)c4)o3)SC2=S)cc1 [NB230] | 3.08 ± 0.047 | 0.332 ± 0.095 | 2.16 ± 0.284 | 142 |  | SI (CC50/EC50) ([4]; selectivity index): 428.93
COC(=O)CN1C(=O)S/C(=C\c2ccc(-c3cc(C(=O)O)ccc3Cl)o2)C1=O [NB234] | > 100 | > 100 | > 100 | > 379 |  | 
O=C1/C(=C/c2ccc(-c3cccc(Cl)c3)o2)SC(=S)N1c1ccccc1 [NB239] | > 100 | > 100 | > 100 | > 402 |  | 
